The results in this text go back to ChEMBL document CHEMBL1154538, “Studies on a series of potent, orally bioavailable, 5-HT(1) receptor ligands--part II” (Bioorg Med Chem Lett, 2009).

Each structure is given as a SMILES string.

5-hydroxytryptamine receptor 1B, sequence (P28222 whole entry): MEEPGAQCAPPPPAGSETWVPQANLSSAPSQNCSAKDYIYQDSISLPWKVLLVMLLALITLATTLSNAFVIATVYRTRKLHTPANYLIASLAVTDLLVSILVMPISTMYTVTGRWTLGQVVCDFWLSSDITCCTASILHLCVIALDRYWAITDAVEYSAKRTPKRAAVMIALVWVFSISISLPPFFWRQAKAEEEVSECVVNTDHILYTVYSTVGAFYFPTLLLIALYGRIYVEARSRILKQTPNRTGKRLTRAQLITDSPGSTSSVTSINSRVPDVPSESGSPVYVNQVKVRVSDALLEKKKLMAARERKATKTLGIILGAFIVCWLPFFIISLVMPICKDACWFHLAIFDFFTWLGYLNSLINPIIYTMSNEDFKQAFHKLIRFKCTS

The target of one assay is 5-hydroxytryptamine receptor 1D (Homo sapiens, UniProt P28221). As to the kind of experiment: Displacement of 3H]5HT from human 5HT1D receptor expressed in CHO cells. Type of assay: cell-based.
5-hydroxytryptamine receptor 1D, sequence (P28221 whole entry): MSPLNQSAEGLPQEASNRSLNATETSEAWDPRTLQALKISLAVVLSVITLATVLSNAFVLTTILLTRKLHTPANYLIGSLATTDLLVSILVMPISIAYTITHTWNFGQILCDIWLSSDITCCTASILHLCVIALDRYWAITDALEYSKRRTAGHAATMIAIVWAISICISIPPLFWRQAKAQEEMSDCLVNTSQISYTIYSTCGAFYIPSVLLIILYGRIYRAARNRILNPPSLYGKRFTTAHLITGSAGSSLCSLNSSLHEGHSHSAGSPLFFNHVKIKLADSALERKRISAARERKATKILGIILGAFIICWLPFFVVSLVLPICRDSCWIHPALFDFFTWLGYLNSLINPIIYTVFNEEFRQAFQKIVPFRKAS
Compound `CC(=O)N1CCC(c2cccc(CC3CCN(CCOc4cccc5nc(C)ccc45)CC3)c2)CC1` gave a Ki of 3.98 nM.
The compound `Cc1ccc2c(OCCN3CCC(Cc4cccc(N5CCCC5)c4)CC3)cccc2n1` had a Ki of 2.51 nM.
In the case of `Cc1ccc2c(OCCN3CCC(Cc4cccc(-c5ccncc5)c4)CC3)cccc2n1`, the inhibition constant (Ki) is 1 nM.
As to `Cc1ccc2c(OCCN3CCC(Cc4cccc(C5CCN(S(C)(=O)=O)CC5)c4)CC3)cccc2n1`, the Ki was 3.16 nM.
`Cc1ccc2c(OCCN3CCC(Cc4cccc(N5CCN(C)CC5=O)c4)CC3)cccc2n1`: the affinity corresponds to a Ki of 3.98 nM.
The compound `Cc1ccc2c(OCCN3CCC(Cc4cccc(N5CCN(C)C(=O)C5)c4)CC3)cccc2n1` gave a Ki of 10 nM.
Compound `Cc1ccc2c(OCCN3CCC(Cc4cccc(N5C[C@@H](C)O[C@@H](C)C5)c4)CC3)cccc2n1` gave a Ki of 1.58 nM.
On the same count and under the same terms, the result for `Cc1ccc2c(OCCN3CCC(Cc4cccc(-c5cccnc5)c4)CC3)cccc2n1` reads 2 nM; that for `Cc1ccc2c(OCCN3CCC(Cc4cccc(N5C[C@@H](C)NC[C@@H]5C)c4)CC3)cccc2n1`, 1 nM.
`Cc1ccc2c(OCCN3CCC(Cc4cccc(-c5ccccc5)c4)CC3)cccc2n1` showed a Ki of 7.94 nM.
`Cc1ccc2c(OCCN3CCC(Cc4cccc(C5CCNCC5)c4)CC3)cccc2n1` showed a Ki of 1.26 nM.

For another assay, the target named is T1, 5-hydroxytryptamine receptor 1A (Homo sapiens, UniProt P08908).
T1 sequence (P08908 whole entry): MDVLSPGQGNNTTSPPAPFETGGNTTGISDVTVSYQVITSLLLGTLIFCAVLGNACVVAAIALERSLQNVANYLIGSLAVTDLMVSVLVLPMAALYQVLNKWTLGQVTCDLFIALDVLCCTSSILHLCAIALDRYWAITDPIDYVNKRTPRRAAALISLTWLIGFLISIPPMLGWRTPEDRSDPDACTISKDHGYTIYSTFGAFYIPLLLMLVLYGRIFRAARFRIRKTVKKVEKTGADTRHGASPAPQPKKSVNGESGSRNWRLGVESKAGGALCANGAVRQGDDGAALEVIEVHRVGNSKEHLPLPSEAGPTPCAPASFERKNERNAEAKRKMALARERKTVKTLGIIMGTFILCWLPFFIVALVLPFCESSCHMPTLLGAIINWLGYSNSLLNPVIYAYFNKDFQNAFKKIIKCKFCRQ
As to the kind of experiment: Displacement of [125I]WAY100635 from human 5HT1A receptor expressed in CHO cells. Type of assay: cell-based.
As to `CC(=O)N1CCC(c2cccc(CC3CCN(CCOc4cccc5nc(C)ccc45)CC3)c2)CC1`, the affinity, expressed as Ki, was 12.6 nM.
The compound `Cc1ccc2c(OCCN3CCC(Cc4cccc(N5CCCC5)c4)CC3)cccc2n1` gave an inhibition constant Ki of 10 nM.
For the compound `Cc1ccc2c(OCCN3CCC(Cc4cccc(-c5ccncc5)c4)CC3)cccc2n1`, the Ki is 7.94 nM.
As to `Cc1ccc2c(OCCN3CCC(Cc4cccc(C5CCN(S(C)(=O)=O)CC5)c4)CC3)cccc2n1`, affinity was put at a Ki of 7.94 nM. This lies in the single-digit nanomolar range.
On the same count and under the same terms, the result for `Cc1ccc2c(OCCN3CCC(Cc4cccc(N5CCN(C)CC5=O)c4)CC3)cccc2n1` reads 20 nM.
`Cc1ccc2c(OCCN3CCC(Cc4cccc(N5CCN(C)C(=O)C5)c4)CC3)cccc2n1` showed a Ki of 7.94 nM.
As for `Cc1ccc2c(OCCN3CCC(Cc4cccc(N5C[C@@H](C)O[C@@H](C)C5)c4)CC3)cccc2n1`, the affinity, expressed as Ki, was 2.51 nM.
Regarding `Cc1ccc2c(OCCN3CCC(Cc4cccc(-c5cccnc5)c4)CC3)cccc2n1`, the affinity, expressed as Ki, was 5.01 nM.
For `Cc1ccc2c(OCCN3CCC(Cc4cccc(N5C[C@@H](C)NC[C@@H]5C)c4)CC3)cccc2n1`, the Ki is 5.01 nM.
Compound `Cc1ccc2c(OCCN3CCC(Cc4cccc(-c5ccccc5)c4)CC3)cccc2n1` gave a Ki of 63.1 nM.
As to `Cc1ccc2c(OCCN3CCC(Cc4cccc(C5CCNCC5)c4)CC3)cccc2n1`, the Ki is 6.31 nM.

The next assay concerns the target 5-hydroxytryptamine receptor 1B (Homo sapiens, UniProt P28222). Put plainly: Displacement of [3H]5HT from human 5HT1B receptor expressed in CHO cells. Type of assay: cell-based.
The compound `CC(=O)N1CCC(c2cccc(CC3CCN(CCOc4cccc5nc(C)ccc45)CC3)c2)CC1` had a Ki of 158 nM.
Still for that read-out and setting: in the case of `Cc1ccc2c(OCCN3CCC(Cc4cccc(N5CCCC5)c4)CC3)cccc2n1` it was 39.8 nM.
In turn, `Cc1ccc2c(OCCN3CCC(Cc4cccc(-c5ccncc5)c4)CC3)cccc2n1` showed an inhibition constant (Ki) of 7.94 nM. Compared with the last compound, the Ki is about 5-fold lower.
Still for that read-out and setting: in the case of `Cc1ccc2c(OCCN3CCC(Cc4cccc(C5CCN(S(C)(=O)=O)CC5)c4)CC3)cccc2n1` it was 79.4 nM.
As to `Cc1ccc2c(OCCN3CCC(Cc4cccc(N5CCN(C)CC5=O)c4)CC3)cccc2n1`, the affinity, expressed as Ki, was 63.1 nM.
For the compound `Cc1ccc2c(OCCN3CCC(Cc4cccc(N5CCN(C)C(=O)C5)c4)CC3)cccc2n1`, the inhibition constant Ki was 126 nM.
Compound `Cc1ccc2c(OCCN3CCC(Cc4cccc(N5C[C@@H](C)O[C@@H](C)C5)c4)CC3)cccc2n1` gave a Ki of 158 nM.
`Cc1ccc2c(OCCN3CCC(Cc4cccc(-c5cccnc5)c4)CC3)cccc2n1` had a Ki of 12.6 nM.
Same read-out and setting: in the case of `Cc1ccc2c(OCCN3CCC(Cc4cccc(N5C[C@@H](C)NC[C@@H]5C)c4)CC3)cccc2n1` it was 31.6 nM; in that of `Cc1ccc2c(OCCN3CCC(Cc4cccc(-c5ccccc5)c4)CC3)cccc2n1`, 63.1 nM; in that of `Cc1ccc2c(OCCN3CCC(Cc4cccc(C5CCNCC5)c4)CC3)cccc2n1`, 6.31 nM.
